What all share (format): in vivo
The subject of experiment [1] is rTg4510 mice. Kind of experiment: Morris Water Maze behavioral test, study of Example 1 and Example 12. To be noted: once daily by gavage 12.5 weeks, Example 1 at 7 and 20 mg/kg, Example 12 at 20 mg/kg, vs vehicle treated rTg4510, FIG. 1. An excerpt: (§1) Double transgenic rTg4510 mice are an aggressive Tauopathy model expressing the full-length human Tau carrying the P301L mutation (Tau4R0N-P301L) under the control of the tetracycline-inducible CaMKII promoter (Ramsden et al., J. Neurosci., 2005⋅25(46):10637-10647). Wild-type animals and single transgenic mice expressing only the tetracycline-controlled transactivator (tTA) were used as genotype controls. The study comprised 6 treatment groups (n=20 mice/group) with the following group distribution (see Table 5). Compounds or vehicle control were administered once daily by gavage for 12.5 weeks starting at the age of 5.5 weeks. The Morris Water Maze (MWM) behavioral test was performed after 12.5 weeks of treatment over 5 consecutive days. During MWM testing daily dosing was continued. Behavioral testing (MWM) was performed only on female mice (around n=11 female/group). […]
The MWM was performed in a circular tank, measuring 48″ in diameter. […] Trials were video recorded and analyzed by a computer program (WaterMaze; Actimetrics, Wilmette, Ill.). […] Percent time spent in each quadrant (target, left and right adjacent, and opposite) were calculated for probe trials. […] Data were analyzed by 2-way ANOVA followed by post-hoc comparisons and shown statistics refers to differences compared to vehicle treated rTg4510 mice.

The subject of experiment [2] is rTg4510 mice. Kind of experiment: Cortex size (cortical atrophy), study of Example 1 and Example 12. To be noted: once daily by gavage 12.5 weeks, Example 1 at 7 and 20 mg/kg, Example 12 at 20 mg/kg, vs vehicle treated rTg4510, FIG. 2A.
Text: as §1, with “weeks.” for “weeks. The Morris Water Maze (MWM) behavioral test was performed after 12.5 weeks of treatment over 5 consecutive days. During MWM testing daily dosing was continued. Behavioral testing (MWM) was performed only on female mice (around n=11 female/group).”
(§2) After behavioral testing, mice were deeply anesthetized by standard injectable anesthesia and transcardially perfused with cold PBS. […] Sections from 7 mice per group, excluding wild-type animals, were collected from around 10 mediolateral levels starting 0.2 mm lateral from midline, mounted on slides, and used to quantify the cortex size. […] To reduce auto-fluorescence of the tissue, sections were incubated with a solution of 0.1% Sudan Black (Sigma) in 70% ethanol for 15 minutes at room temperature, then washed four times 5 minutes in PBS, and mounted using ProLong Gold Antifade reagent (Invitrogen). Staining was visualized on the Nikon Eclipse Ti microscope, imaged using Nikon DS-Fi2 camera, and quantified using the NIS-Element AR4.13.1 software. […]

A further experiment addresses T1, misfolded Tau (MC1) (Homo sapiens, UniProt P10636, P618L).
T1 construct: expressing the full-length human Tau carrying the P301L mutation (Tau4R0N-P301L); from tissue; host or cells: brain (cortex) of double transgenic rTg4510 mice
As to the kind of experiment: Misfolded Tau by MC1 histology, study of Example 1 and Example 12. To be noted: rTg4510 mice, once daily by gavage 12.5 weeks; Example 1 at 7 and 20 mg/kg, Example 12 at 20 mg/kg; vs vehicle treated rTg4510; FIG. 2B.
Text: as §1, with “weeks.” for “weeks. The Morris Water Maze (MWM) behavioral test was performed after 12.5 weeks of treatment over 5 consecutive days. During MWM testing daily dosing was continued. Behavioral testing (MWM) was performed only on female mice (around n=11 female/group).”
as §2

The test system of another experiment is CD68 positive microglia. Kind of experiment: CD68 histology (neuroinflammation), study of Example 1 and Example 12. The conditions noted are these: rTg4510 mice, once daily by gavage 12.5 weeks; Example 1 at 7 and 20 mg/kg, Example 12 at 20 mg/kg; vs vehicle treated rTg4510; FIG. 3. An excerpt: Double transgenic rTg4510 mice are an aggressive Tauopathy model expressing the full-length human Tau carrying the P301L mutation (Tau4R0N-P301L) under the control of the tetracycline-inducible CaMKII promoter (Ramsden et al., J. Neurosci., 2005⋅25(46):10637-10647). Wild-type animals and single transgenic mice expressing only the tetracycline-controlled transactivator (tTA) were used as genotype controls. The study comprised 6 treatment groups (n=20 mice/group) with the following group distribution (see Table 5). Compounds or vehicle control were administered once daily by gavage for 12.5 weeks starting at the age of 5.5 weeks. The Morris Water Maze (MWM) behavioral test was performed after 12.5 weeks of treatment over 5 consecutive days. During MWM testing daily dosing was continued. Behavioral testing (MWM) was performed only on female mice (around n=11 female/group). Measurements of cortical atrophy and histology for misfolded Tau (MC1) and CD68 were performed on 7 animals/group excluding wild-type animals.
A systematic random set of sections for five sagittal sections per animal (a total of 175 sections) was used for CD68 histological staining. […] Data were analyzed by 1-way ANOVA followed by post-hoc comparisons and shown statistics refers to differences compared to vehicle treated rTg4510 mice.

The values below come from patent US12202840B2, “Compounds for the treatment or alleviation of disorders associated with Tau aggregates” (AC Immune SA, priority 2018, dated 2025).

T1 sequence (P10636 1-383 isoform P10636-6 P243L): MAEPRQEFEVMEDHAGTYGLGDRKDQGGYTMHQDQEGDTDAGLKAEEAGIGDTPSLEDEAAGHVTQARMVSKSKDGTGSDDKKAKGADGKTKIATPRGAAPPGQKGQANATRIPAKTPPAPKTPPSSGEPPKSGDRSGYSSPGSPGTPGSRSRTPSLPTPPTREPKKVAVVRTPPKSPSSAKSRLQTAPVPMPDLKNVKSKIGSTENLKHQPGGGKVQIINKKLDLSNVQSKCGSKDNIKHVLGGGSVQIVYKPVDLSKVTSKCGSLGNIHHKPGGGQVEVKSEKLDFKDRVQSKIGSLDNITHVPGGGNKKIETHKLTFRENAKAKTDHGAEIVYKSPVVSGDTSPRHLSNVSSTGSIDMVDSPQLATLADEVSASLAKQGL

On to `CC(C)N1CCc2c(c3ccc(Nc4ccc5nc(N6CCOCC6)sc5c4)nc3n2C)C1` [Example 1], for which the “percentage of time spent in the target quadrant (MWM probe trial)” value with rTg4510 mice [1] is reported as “dose-dependent increase”. Also, the cortex size entry in the experiment on rTg4510 mice [2] is recorded as “dose-dependent increase”. The “misfolded Tau (MC1 histology)” value on misfolded Tau (MC1) is “dose-dependent decrease”. In the experiment with CD68 positive microglia, the CD68 positive microglia result is on record as “decrease”.

On to `CN(C)[C@@H]1CCc2c(c3ccc(Nc4ccc5nc(N6CCOCC6)sc5c4)nc3n2C)C1` [Example 12], for which the “percentage of time spent in the target quadrant (MWM probe trial)” value in the experiment on rTg4510 mice [1] is recorded as “significant increase”. In addition, in the experiment on rTg4510 mice [2], the cortex size entry was “significant increase”. Further, the “misfolded Tau (MC1 histology)” value on misfolded Tau (MC1) was “significant decrease”. For the same molecule, the CD68 positive microglia entry with CD68 positive microglia is on record as “significant decrease”.
